# Test results from PubChem BioAssay AID1963844 (Molecular Pharmacology Branch, DTP, NCI, 2024).
# Test system: 422866-222-R5-J1-PDC complex spheroid viability
# Assay: Anticancer human tumor 422866-222-R5-J1-PDC patient-derived pancreatic adenocarcinoma cell line growth inhibition [POLQ]
# Conditions: for IC50: curve of first compound; for viability, T/C: stronger effect = lower value
# How it was run: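 PDC + HUVEC + MSC complex spheroids; POLQ inhibitors ± partner drugs; top conc. at/near clinical Cmax, else 10 microM (SN-38 1 microM), half-log dilutions; 37 degrees C, 5% CO2.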
# [1] = second compound 0.0316 µM, first compound 0.0316 µM
# [2] = second compound 0.0316 µM, first compound 0.1 µM
# [3] = second compound 0.0316 µM, first compound 0.316 µM
# [4] = second compound 0.0316 µM, first compound 1 µM
# [5] = second compound 0.0316 µM, first compound 3.16 µM
# [6] = second compound 0.0316 µM, first compound 10 µM
# [7] = second compound 0.1 µM, first compound 0.0316 µM
# [8] = second compound 0.1 µM, first compound 0.1 µM
# [9] = second compound 0.1 µM, first compound 0.316 µM
# [10] = second compound 0.1 µM, first compound 1 µM
# [11] = second compound 0.1 µM, first compound 3.16 µM
# [12] = second compound 0.1 µM, first compound 10 µM
# [13] = second compound 0.316 µM, first compound 0.0316 µM
# [14] = second compound 0.316 µM, first compound 0.1 µM
# [15] = second compound 0.316 µM, first compound 0.316 µM
# [16] = second compound 0.316 µM, first compound 1 µM
# [17] = second compound 0.316 µM, first compound 3.16 µM
# [18] = second compound 0.316 µM, first compound 10 µM
# [19] = second compound 1 µM, first compound 0.0316 µM
# [20] = second compound 1 µM, first compound 0.1 µM
# [21] = second compound 1 µM, first compound 0.316 µM
# [22] = second compound 1 µM, first compound 1 µM
# [23] = second compound 1 µM, first compound 3.16 µM
# [24] = second compound 1 µM, first compound 10 µM
# [25] = second compound 3.16 µM, first compound 0.0316 µM
# [26] = second compound 3.16 µM, first compound 0.1 µM
# [27] = second compound 3.16 µM, first compound 0.316 µM
# [28] = second compound 3.16 µM, first compound 1 µM
# [29] = second compound 3.16 µM, first compound 3.16 µM
# [30] = second compound 3.16 µM, first compound 10 µM
# [31] = second compound 10 µM, first compound 0.0316 µM
# [32] = second compound 10 µM, first compound 0.1 µM
# [33] = second compound 10 µM, first compound 0.316 µM
# [34] = second compound 10 µM, first compound 1 µM
# [35] = second compound 10 µM, first compound 3.16 µM
# [36] = second compound 10 µM, first compound 10 µM
# 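Also: spheroids exposed to compounds for one week before readout.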
# 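For viability, T/C in this document: percent of DMSO vehicle wells luminescence so 100% = untreated viability.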
structure (smiles),measurement,setting,value
CCc1cc2c(N3CCc4c(cc(Cn5ccnc5)cc4-c4cn(C)nc4C(F)(F)F)C3=O)ccnc2c(OC)n1 + Nc1ccc(C#CCN(C(=O)Cc2ncc(C(F)(F)F)cc2C(F)(F)F)c2ccc(F)cc2)nn1,IC50,second compound 0.0316 µM,> 10 µM
same,IC50,second compound 0.1 µM,> 10 µM
same,IC50,second compound 0.316 µM,> 10 µM
same,IC50,second compound 1 µM,> 10 µM
same,IC50,second compound 3.16 µM,> 10 µM
same,IC50,second compound 10 µM,> 10 µM
same,"viability, T/C",[1],82.5%
same,"viability, T/C",[2],102%
same,"viability, T/C",[3],103%
same,"viability, T/C",[4],119%
same,"viability, T/C",[5],89.2%
same,"viability, T/C",[6],126%
same,"viability, T/C",[7],79.7%
same,"viability, T/C",[8],103%
same,"viability, T/C",[9],112%
same,"viability, T/C",[10],109%
same,"viability, T/C",[11],95.6%
same,"viability, T/C",[12],120%
same,"viability, T/C",[13],85.7%
same,"viability, T/C",[14],85.2%
same,"viability, T/C",[15],79.5%
same,"viability, T/C",[16],128%
same,"viability, T/C",[17],98.9%
same,"viability, T/C",[18],98.3%
same,"viability, T/C",[19],82.8%
same,"viability, T/C",[20],77.3%
same,"viability, T/C",[21],107%
same,"viability, T/C",[22],101%
same,"viability, T/C",[23],113%
same,"viability, T/C",[24],107%
same,"viability, T/C",[25],102%
same,"viability, T/C",[26],90.7%
same,"viability, T/C",[27],92%
same,"viability, T/C",[28],92.7%
same,"viability, T/C",[29],114%
same,"viability, T/C",[30],115%
same,"viability, T/C",[31],92.8%
same,"viability, T/C",[32],115%
same,"viability, T/C",[33],93.7%
same,"viability, T/C",[34],102%
same,"viability, T/C",[35],110%
same,"viability, T/C",[36],106%
CCc1cc2c(N3CCc4c(cc(Cn5ccnc5)cc4-c4cn(C)nc4C(F)(F)F)C3=O)cc(C)nc2c(OC)n1 + Nc1ccc(C#CCN(C(=O)Cc2ncc(C(F)(F)F)cc2C(F)(F)F)c2ccc(F)cc2)nn1,IC50,second compound 0.0316 µM,> 10 µM
same,IC50,second compound 0.1 µM,> 10 µM
same,IC50,second compound 0.316 µM,> 10 µM
same,IC50,second compound 1 µM,> 10 µM
same,IC50,second compound 3.16 µM,> 10 µM
same,IC50,second compound 10 µM,> 10 µM
same,"viability, T/C",[1],79.3%
same,"viability, T/C",[2],88.6%
same,"viability, T/C",[3],96%
same,"viability, T/C",[4],115%
same,"viability, T/C",[5],103%
same,"viability, T/C",[6],95.5%
same,"viability, T/C",[7],105%
same,"viability, T/C",[8],97.4%
same,"viability, T/C",[9],102%
same,"viability, T/C",[10],87.1%
same,"viability, T/C",[11],98.7%
same,"viability, T/C",[12],99.7%
same,"viability, T/C",[13],99.5%
same,"viability, T/C",[14],86.3%
same,"viability, T/C",[15],94.8%
same,"viability, T/C",[16],88.3%
same,"viability, T/C",[17],118%
same,"viability, T/C",[18],100%
same,"viability, T/C",[19],95.6%
same,"viability, T/C",[20],75%
same,"viability, T/C",[21],87.7%
same,"viability, T/C",[22],99.7%
same,"viability, T/C",[23],94.9%
same,"viability, T/C",[24],96.2%
same,"viability, T/C",[25],81.2%
same,"viability, T/C",[26],93.6%
same,"viability, T/C",[27],95.2%
same,"viability, T/C",[28],99.2%
same,"viability, T/C",[29],122%
same,"viability, T/C",[30],107%
same,"viability, T/C",[31],102%
same,"viability, T/C",[32],112%
same,"viability, T/C",[33],106%
same,"viability, T/C",[34],83.7%
same,"viability, T/C",[35],102%
same,"viability, T/C",[36],113%
CC(C)n1c(=O)n(C)c2cnc3cc(F)c(-c4ccc(OCCCN5CCCCC5)nc4)cc3c21 + Cc1cccc(N(C)C(=O)C2C(O)CCN2c2nc(C)cc(C(F)(F)F)c2C#N)c1,IC50,second compound 0.0316 µM,> 10 µM
same,IC50,second compound 0.1 µM,> 10 µM
same,IC50,second compound 0.316 µM,> 10 µM
same,IC50,second compound 1 µM,> 10 µM
same,IC50,second compound 3.16 µM,> 10 µM
same,IC50,second compound 10 µM,> 10 µM
same,"viability, T/C",[1],105%
same,"viability, T/C",[2],101%
same,"viability, T/C",[3],105%
same,"viability, T/C",[4],124%
same,"viability, T/C",[5],106%
same,"viability, T/C",[6],64.9%
same,"viability, T/C",[7],91.6%
same,"viability, T/C",[8],108%
same,"viability, T/C",[9],106%
same,"viability, T/C",[10],115%
same,"viability, T/C",[11],96.3%
same,"viability, T/C",[12],60.4%
same,"viability, T/C",[13],117%
same,"viability, T/C",[14],101%
same,"viability, T/C",[15],104%
same,"viability, T/C",[16],114%
same,"viability, T/C",[17],79.5%
same,"viability, T/C",[18],67%
same,"viability, T/C",[19],100%
same,"viability, T/C",[20],112%
same,"viability, T/C",[21],96.2%
same,"viability, T/C",[22],111%
same,"viability, T/C",[23],98%
same,"viability, T/C",[24],59.5%
same,"viability, T/C",[25],115%
same,"viability, T/C",[26],115%
same,"viability, T/C",[27],96.9%
same,"viability, T/C",[28],118%
same,"viability, T/C",[29],79.9%
same,"viability, T/C",[30],66.9%
same,"viability, T/C",[31],115%
same,"viability, T/C",[32],90.5%
same,"viability, T/C",[33],94.5%
same,"viability, T/C",[34],90.7%
same,"viability, T/C",[35],80.5%
same,"viability, T/C",[36],60.3%
